From PubChem BioAssay AID1996 come the findings set out here.

Structures are written as SMILES. ≈ marks a conversion by molar mass, not a printed value. Where only a bound is given, the exact number is not on record here.

The conditions of this data set: buffer; pH 7.4; 200.0 µM.
`CC(=O)SC1CC(=O)N(c2c(C)cccc2C)C1=O` (centres undefined): the solubility (kinetic) is > 41.6 µg/mL.

`COc1ccccc1C(=O)NCCNC(=O)c1ccc(C)nc1` had a kinetic solubility of 45.7 µg/mL (≈ 146 µM). Regarding `Cc1ccc(-c2c(C)n([O-])c3c([n+]2=O)CCCC3)cc1`, the kinetic solubility is > 40.5 µg/mL. `CCOC(=O)CNc1ccc(OC(F)(F)F)cc1`: the kinetic solubility was determined as 7.2 µg/mL (≈ 27.4 µM).

Compound `CN(C)c1ccc(P(=O)(OC2CCCCC2)C(O)c2ccncc2)cc1` (centres undefined) displayed a solubility (kinetic) of 52.8 µg/mL (≈ 141 µM). Turning to `CC1CC(C)CN(CC(=O)c2cccs2)C1` (centres undefined), the solubility (kinetic) came to 30.8 µg/mL (≈ 130 µM). For the compound `O=C(c1ccc([N+](=O)[O-])cc1Cl)N1CCN(c2ccccn2)CC1`, the kinetic solubility is > 52 µg/mL. Take `Cc1cc2oc(=O)cc(CN3CCCCC3C)c2cc1C(C)C` (centres undefined): the solubility (kinetic) came out at 8.1 µg/mL (≈ 25.8 µM). `FC(F)(F)c1ccccc1-c1nc(-c2ccncc2)no1` displayed a kinetic solubility of 7.6 µg/mL (≈ 26.1 µM). With `C=CCNC(=S)/N=c1/ccccn1C` the figure was > 31.1 µg/mL; with `CCOc1ccccc1NC(=O)Nc1ccc2c(c1)CCC2`, < 0.3 µg/mL.

For the compound `NC(=S)N1CCCc2ccccc21`, the kinetic solubility was > 28.8 µg/mL.

`COc1cccc(N2CC(O)Cn3c2nc2c3c(=O)[nH]c(=O)n2C)c1` (centres undefined): the solubility (kinetic) was > 51.5 µg/mL.

Consider `CC(C)[C@H](NC(=O)c1ccccc1)C(=O)OCC(=O)c1c(N)n(C)c(=O)n(C)c1=O`, for which the kinetic solubility is > 62.5 µg/mL.

For the compound `COc1ccccc1-c1nc(=S)c(C(C)=O)c(C)[nH]1`, the solubility (kinetic) is > 41.2 µg/mL. For `COc1ccc2c(C(=O)CCl)c[nH]c2c1`, the solubility (kinetic) is 5.3 µg/mL (≈ 23.7 µM). `O=C(CS(=O)(=O)c1ccccc1)Nc1nccs1`: the kinetic solubility is > 42.3 µg/mL.

As to `CS(=O)(=O)N1CCC(C(=O)NCc2ccccc2)CC1`, the kinetic solubility is > 44.5 µg/mL.

`O=C1SCCC1NS(=O)(=O)c1ccc([N+](=O)[O-])cc1` (centres undefined) had a kinetic solubility of 38.3 µg/mL (≈ 127 µM). Take `COc1cc(C(=O)OCC(=O)NC2CCCCC2)cc(OC)c1OC`: the solubility (kinetic) is > 52.7 µg/mL. For `C=C(C)CN1C(=O)C(=O)N(CC(=C)C)C1=O`, the solubility (kinetic) is > 33.3 µg/mL. The compound `COc1ccccc1NS(=O)(=O)c1cc(N)ccc1N1CCCCC1` gave a solubility (kinetic) of 6.1 µg/mL (≈ 16.9 µM). Compound `CCS(=O)(=O)N1CCC(c2nc3ccccc3[nH]2)CC1` showed a solubility (kinetic) of 40 µg/mL (≈ 136 µM).

Take `CN(c1ccccc1)S(=O)(=O)c1cccc(C(=O)OCC(=O)NCc2ccccc2)c1`: the solubility (kinetic) came to 11.1 µg/mL (≈ 25.3 µM). As to `OC(c1ccccc1)(c1ccccc1)C1CCNCC1`, the kinetic solubility was > 40.1 µg/mL. For the compound `Cc1ccsc1/C=N/NC(=O)CNC(=O)c1ccco1`, the solubility (kinetic) is > 43.7 µg/mL. As to `CC1=NOC(=O)/C1=C/c1ccc(O)c(Cl)c1`, the solubility (kinetic) is > 35.6 µg/mL.

As to `Cc1cc(CNC(=O)COc2ccc([N+](=O)[O-])cc2)c2ccccc2n1`, the kinetic solubility turned out to be 2.3 µg/mL (≈ 6.55 µM). On to `O=Cc1c(NCCN2CCCC2)c2ccccc2[nH]c1=O`, for which the solubility (kinetic) was > 42.8 µg/mL. The compound `CCOc1ccc(N2CC(C(=O)N3CCCc4ccccc43)CC2=O)cc1` (centres undefined) yielded a solubility (kinetic) of 47.2 µg/mL (≈ 130 µM). Under `CC(O)CCC(=O)NNC(=S)Nc1ccccc1` (centres undefined) stands > 40.1 µg/mL; under `CC1CCCN(S(=O)(=O)c2csc(C(N)=O)c2)C1` (centres undefined), > 43.3 µg/mL; under `COc1ccc(CN2CCOCCOCCOCC2)cc1`, 39.1 µg/mL (≈ 132 µM). With `O=C1CN(C(=O)COC(=O)c2ccc(Br)o2)c2ccccc2N1` the figure was 9.5 µg/mL (≈ 25.1 µM); with `Oc1cccc(/C=C/c2ccc3cccc(O)c3n2)c1`, 2.3 µg/mL (≈ 8.74 µM).

Take `O=C1CN(O)C(c2ccccc2)=c2cc(Cl)ccc2=N1`: the solubility (kinetic) was found to be 37.9 µg/mL (≈ 132 µM). With `CCOP(=O)(OCC)C(O)c1cccnc1` (centres undefined) the figure was > 36.8 µg/mL; with `NC(=O)c1ccsc1NC(=O)c1ccc([N+](=O)[O-])o1`, 20.5 µg/mL (≈ 72.9 µM); with `Cc1ccc(N(CN2CCCC2=O)C(=O)c2ccccc2)cc1`, > 46.3 µg/mL. Consider `NC1=NC(=Nc2ccc(S(N)(=O)=O)cc2)c2ccccc21`, for which the kinetic solubility was > 45.1 µg/mL. Turning to `Cc1cc(C)c2nc(Cl)c(C3NC(=O)c4ccccc4N3)cc2c1` (centres undefined), the kinetic solubility is < 0.2 µg/mL.

In turn, `C=C(C)CN(CC)C(=O)CC1C(=O)NCCN1CC(C)(C)C` (centres undefined) yielded a solubility (kinetic) of 39.6 µg/mL (≈ 128 µM). For the compound `CN(C)C(=S)c1ccc(N(C)C)cc1`, the kinetic solubility is 28.2 µg/mL (≈ 135 µM). Under `CCOC(=O)C1=C(COC(=O)c2ccco2)NC(=O)NC1CC` (centres undefined) stands > 48.3 µg/mL; under `COc1cccc(NC(=O)N(CCN(C)C)C(C)c2cccnc2)c1` (centres undefined), > 51.4 µg/mL. For `Cc1ccc(NC(=S)NCc2ccccc2)cc1C`, the solubility (kinetic) was 5.1 µg/mL (≈ 18.9 µM). As to `COc1cccc(C(=O)N(C)Cc2c(C)nn(C3CCS(=O)(=O)C3)c2C)c1` (centres undefined), the kinetic solubility is > 58.7 µg/mL. `CC(C)(C)C(=O)N1CCN(c2ccc([N+](=O)[O-])cc2-n2cccc2)CC1` displayed a kinetic solubility of 1.4 µg/mL (≈ 3.93 µM). With `O=[N+]([O-])c1cccc(CSc2ncnc3ccccc23)c1` the figure was 2 µg/mL (≈ 6.73 µM). Compound `CCc1ccccc1NC(=S)N(CCN(C)C)C(C)c1ccco1` (centres undefined) came in with a kinetic solubility of 50.5 µg/mL (≈ 146 µM). For `CCOC(=O)c1cnn(C)c1NC(=O)c1ccc(Cl)cc1Cl`, the solubility (kinetic) is > 51.3 µg/mL. With `Cc1ccc(S(=O)(=O)N2CCC[C@H]2C(=O)NCc2ccccc2Cl)cc1` the figure was > 58.9 µg/mL. As for `CCCc1c(C)nc(N2CCN(c3ccccc3F)CC2)[nH]c1=O`, the solubility (kinetic) was 0.4 µg/mL (≈ 1.21 µM). With `O=C(O)CC1(CC(=O)Nc2ccc3ccccc3n2)CCCCC1`, the solubility (kinetic) was > 49 µg/mL.

Take `Cc1cc(Cl)c(OCCOCCN2CCNCC2)c(Cl)c1.O=C(O)C(=O)O`: the kinetic solubility stood at 62.5 µg/mL. In turn, `COC(=O)c1ccsc1NC(=O)CCc1ccccc1` registered a solubility (kinetic) of 9.6 µg/mL (≈ 33.2 µM). In the case of `COc1ccc(CNCc2cccc(C)c2)cc1.O=C(O)C(=O)O`, the solubility (kinetic) is > 49.7 µg/mL. Take `CN1CCCN(C(=O)COc2ccc(F)cc2F)CC1`: the kinetic solubility was > 42.6 µg/mL. Under `Cc1cc(C)nc(N/N=C/c2sccc2C)n1` stands > 36.9 µg/mL.

`Cn1cccc1C(=O)OCC(=O)N1CC(=O)Nc2ccccc21` returned a solubility (kinetic) of 45.1 µg/mL (≈ 144 µM). Consider `Cc1cc(C(=O)NC(Cc2ccccc2)C(=O)O)c(C)o1` (centres undefined), for which the kinetic solubility was > 43.1 µg/mL. Consider `C/C(=C\C(=O)c1cccnc1)Nc1ccc(C(=O)O)cc1`, for which the kinetic solubility came out at 31.3 µg/mL (≈ 111 µM).

`CN(C)S(=O)(=O)c1cccc(NC(=O)c2ccc(NS(=O)(=O)c3cccs3)cc2)c1` displayed a kinetic solubility of 59.5 µg/mL (≈ 128 µM). `CC1CCN(C(=O)C2COc3ccccc3O2)CC1` (centres undefined): the kinetic solubility was > 39.2 µg/mL. Take `COC(=O)n1c(=O)oc2ccc(S(=O)(=O)N3CCCCC3)cc21`: the kinetic solubility is > 51.1 µg/mL. As for `CCC(C)C(NC(N)=O)C(=O)Nc1ccc(C(=O)OC)cc1` (centres undefined), the solubility (kinetic) was > 46.1 µg/mL.

As for `COC(=O)c1cccc(NC(=O)Cc2ccsc2)c1`, the kinetic solubility was > 41.3 µg/mL. Under `Cc1ccnc(SCC(=O)N2CCCc3ccccc32)n1` stands > 44.9 µg/mL; under `CC(C)CN(C(=O)C1CCC1)c1c(N)n(Cc2ccccc2)c(=O)[nH]c1=O`, 36.6 µg/mL (≈ 98.8 µM); under `Cc1nc(-c2ccc(Cl)cc2)sc1C(=O)O`, 33.2 µg/mL (≈ 131 µM).

With `CC(=O)NC(c1ccc(Cl)cc1Cl)c1ccc2cccnc2c1O` (centres undefined), the kinetic solubility came out at 3 µg/mL (≈ 8.31 µM).

As to `Cc1ccc(S(=O)(=O)N2CCCCC2)cc1C(=O)NCc1ccccn1`, the kinetic solubility was 52 µg/mL (≈ 139 µM). Regarding `Fc1ccc(NC2=NCCCCC2)cc1`, the kinetic solubility was > 30.9 µg/mL. For `O=C(NCC(c1ccco1)N1CCCC1)c1ccc(-n2cccn2)cc1` (centres undefined), the kinetic solubility is > 52.6 µg/mL.

For `COc1ccc(OC)c(NC(=O)COC(=O)C2CCC2)c1`, the solubility (kinetic) was > 44 µg/mL. With `CC(NC(=O)NC(=O)c1cccc([N+](=O)[O-])c1)C1CC1` (centres undefined) the figure was 3.8 µg/mL (≈ 13.7 µM); with `CN(c1ccccc1)S(=O)(=O)c1cccc(NC(=O)CSc2nccc(=O)[nH]2)c1`, > 64.6 µg/mL; with `Nc1cc(Oc2ccc(Cl)cc2Cl)nc(N)n1`, 39.5 µg/mL (≈ 146 µM).

As to `Cc1nc(C)n(CC(=O)c2ccc(Cl)cc2Cl)n1`, the kinetic solubility was > 42.6 µg/mL. Turning to `Cc1ccc(Nc2nnc(C)c3ccccc23)c(C)c1`, the solubility (kinetic) was > 39.5 µg/mL. Regarding `CCCCCn1c(=O)c(C(=O)Nc2cccc(C)c2)c(O)c2ccccc21`, the kinetic solubility was < 0.4 µg/mL. Regarding `OCCCc1nc2ccccc2n1Cc1ccccc1`, the kinetic solubility is > 40 µg/mL. Take `CC1CCc2sc(C(=O)Nc3ccc(C(N)=O)cc3)cc2C1` (centres undefined): the kinetic solubility is 3.4 µg/mL (≈ 10.8 µM). `O=C(Cc1cccs1)N1CCN(c2cccc(Cl)c2)CC1` yielded a kinetic solubility of 42.9 µg/mL (≈ 134 µM). Turning to `CCCC1/C(=N/O)CC(c2ccccc2)NC1c1ccccc1` (centres undefined), the kinetic solubility was < 0.3 µg/mL. Consider `Cc1ccc(CNCc2ccc3c(c2)OCO3)cc1`, for which the solubility (kinetic) amounted to 32.5 µg/mL (≈ 127 µM). In the case of `COc1ccc([N+](=O)[O-])cc1NC(=S)NC(C)=O`, the kinetic solubility amounted to 2 µg/mL (≈ 7.43 µM). On to `COc1ccc(NS(=O)(=O)c2cc(NC(=O)COc3ccc(OC)cc3)ccc2N2CCOCC2)cc1`, for which the solubility (kinetic) worked out at 3.4 µg/mL (≈ 6.44 µM). In the case of `CNC(=O)Cc1csc2ccc(C)cc12`, the kinetic solubility came out at 30.4 µg/mL (≈ 139 µM). On to `O=C(c1ccc(Cl)cc1)N1CCN(c2ncccn2)CC1`, for which the solubility (kinetic) is > 45.4 µg/mL.

The compound `CCc1ccccc1N(CC(=O)N1CCCCCC1)S(C)(=O)=O` showed a kinetic solubility of 43.5 µg/mL (≈ 129 µM). With `O=C(Nc1ccccc1)C1CCN(C(=O)c2ccco2)CC1`, the kinetic solubility is > 44.8 µg/mL.

With `Nc1ncnc2c1ncn2Cc1ccccc1`, the solubility (kinetic) is > 33.8 µg/mL.

As for `COc1ccc(-n2cc([N+](=O)[O-])c(=O)c3ccc(Cl)cc32)cc1`, the solubility (kinetic) was determined as 0.7 µg/mL (≈ 2.12 µM). Turning to `O=C(CC1NCCN(Cc2ccccc2)C1=O)Nc1ccc(Cl)cc1` (centres undefined), the solubility (kinetic) stood at 46.8 µg/mL (≈ 131 µM).

For `CN1CCN(c2ccncc2S(=O)(=O)N2CCCCC2)CC1`, the kinetic solubility was > 48.7 µg/mL. On to `COc1ccc(N2CC(C(=O)NCc3ccco3)CC2=O)cc1` (centres undefined), for which the solubility (kinetic) came to 32.2 µg/mL (≈ 102 µM). On to `O=C(NCCCN1CCCC1=O)c1cc2c(s1)CCCCC2`, for which the kinetic solubility was > 48.1 µg/mL. As for `COC(=O)c1ccccc1NC(=O)COC(=O)[C@H](C)NC(N)=O`, the solubility (kinetic) was > 48.5 µg/mL.

`Cc1c(C(=O)C(=O)N2c3ccccc3CC2C)c2ccccc2n1C` (centres undefined): the solubility (kinetic) stood at 1.6 µg/mL (≈ 4.81 µM). `COC(=O)c1ccc(CNC(=O)COC(=O)c2cccs2)cc1` had a kinetic solubility of 10.1 µg/mL (≈ 30.3 µM). As to `COc1ccc(/C=C/C(=O)NC2CCCCC2C)cc1` (centres undefined), the kinetic solubility stood at 4 µg/mL (≈ 14.6 µM). For `COc1ccccc1CCN=C(N)NS(=O)(=O)c1ccc(C)c(C)c1`, the solubility (kinetic) came out at 8.3 µg/mL (≈ 23 µM). Consider `CCOP(=O)(CN(CC)C(=O)c1ccccc1Br)OCC`, for which the solubility (kinetic) was > 56.7 µg/mL.

As a reminder, the solubility (kinetic) is the concentration staying in solution when a stock, usually in DMSO, is diluted into the medium.
